This is an account of results in patent US8492350B2, “Therapeutic agent for pain disease” (Nippon Zoki Pharmaceutical Co., Ltd., priority 2007, dated 2013).

The conditions of data set [1]: disclosed in Patent Document 1 / Example 8 of Japanese Examined Patent Publication No. 63/028,411; cited from earlier work.
In data set [2] the test system is Chung model rats which are models of neuropathic pain. Description: Test for analgesic effect (allodynia, von Frey filament, up-down method) in Chung model rats. Type of data set: in vivo, rats of Wistar strain. The settings on record: for 50% Reaction Threshold Values, Before Administration: baseline. The procedure: Test for analgesic effect was conducted using Chung model rats which are models of neuropathic pain. Male rats of Wistar strain of 9 weeks age were used as experimental animals and model rats were prepared according to a method of Kim and Chung (Pain, vol. 50, pages 355 to 363, 1992). Thus, when they were in 10 weeks age, rat L5 spinal nerve was exposed and the periphery side of L5 dorsal root ganglion was strongly ligated with 5-0 silk yarn under anesthetizing with pentobarbital (40 mg/kg, intraperitoneal administration) to conduct a nerve damage. The animals were placed in a transparent acrylic cage where the bottom was wire net, 50% reaction threshold values were calculated by an up-down method using a von Frey filament (manufactured by North Coast Medical Inc.) according to a method of Chaplan, et al. (J. Neurosci. Method, vol. 53, pages 55 to 63, 1994) and the effect of the test substance to allodynia was measured. […] In those experimental animals, each group comprised seven animals using the 50% reaction threshold values after the nerve damage as an index and the group constitution was done in such a manner that mean values of a nerve damage control group and of a test substance-administered group were made nearly uniform.
N-acetylneuraminic acid as a test substance was intraperitoneally administered in a single dose (120 mg/kg). A 0.5% CMC-Na (w/v) solution/physiological saline was similarly administered to the nerve damage control group (control group). After 30 minutes from the administration of a test substance, pain tests were conducted and the calculated 50% reaction threshold values were expressed in terms of mean value±standard deviation for each group.
Further, in the same manner as the above test, N-acetylneuraminic acid as a test substance was orally administered in a single dose (300 mg/kg). Injection solvent was administered to a nerve damage control group (control group) in the same manner. After 60 minutes from the administration of a test substance, pain tests were conducted and the 50% reaction threshold values were calculated. Numbers of the animals were eight for each of the nerve damage control group and the test substance-administered group.

Each structure is given as a SMILES string.

On to `CC(=O)N[C@H]1[C@H]([C@H](O)[C@H](O)CO)OC(O)(C(=O)[O-])C[C@@H]1O.[Na+]` (stereo partly shown) [sodium N-acetylneuraminate], for which the Acute toxicity result in data set [1] is listed as “very lowly toxic”.

Take `CC(=O)N[C@H]1[C@H]([C@H](O)[C@H](O)CO)OC(O)(C(=O)O)C[C@@H]1O` (stereo partly shown) [N-Acetylneuraminic Acid, N-acetylneuraminic acid]: the “50% reaction threshold value as compared with the nerve damage control group (anti-allodynia action)” value in data set [2] (both single intraperitoneal injection and single oral administration) is “significant rise”. Further, the “50% Reaction Threshold Values, Before Administration” value in data set [2] (group later given a single intraperitoneal dose of 120 mg/kg, mean ± standard deviation) was 2.63 ± 0.21 g; in data set [2] (group later given a single oral dose of 300 mg/kg), 2.75 ± 0.15 g. Moreover, the “50% Reaction Threshold Values, After 30 minutes from Administration” value in data set [2] (single intraperitoneal dose 120 mg/kg, 30 minutes after administration, mean ± standard deviation, *P < 0.05 vs nerve damage control) is given as 6.74 ± 1.64* g. In addition, the “50% Reaction Threshold Values, After 60 minutes from Administration” value in data set [2] (single oral dose 300 mg/kg, 60 minutes after administration, *P < 0.05 vs nerve damage control) is on record as 4.81 ± 0.35* g. In addition, the Acute toxicity entry in data set [1] was “very low and safe”.
